Source: patent publication US7452687B2 (Asahi Kasei Pharma Corporation, priority 2002, dated 2008)
“Also recorded” adds a separate entry of the source. Like-named read-outs stand apart in the source and are kept apart here. Blank lines part the entries; values can stand above or below the molecule they belong to.

Columns and labels:
[1] = tested on: myo-inositol dehydrogenase; experiment: Study on buffers in reagents for myo-inositol quantitative determination (acceleration stability test of R-2 reagent); details: 100 mM buffer pH 8.8; R-2 stored at 30° C. for 20 days, tested on 7th, 12th, 20th days
[2] = tested on: myo-inositol dehydrogenase derived from the strain F.sp.671; experiment: Relative activity assay (initial velocity with each coenzyme or substrate); format: biochemical, Flavobaterium sp. 671; details: for Substrate specificity (enzyme activity for each substrate): coenzyme NAD, substrate 20 mM, pH 10.0, 37° C., initial velocity to myo-inositol as 100%; for Relative activity ratio for each coenzyme used: substrate 20 mM myo-inositol, coenzyme 2 mM, 100 mM glycine buffer pH 10.0, 37° C., NAD as 100%
Experimental: The relative activities were determined with the coenzyme changed according to the following method. Relative Activity Assay <Composition of Reaction Solution> • Buffer: 100 mM glycine buffer (pH 10.0) • Substrate: 20 mM myo-inositol (Sigma, Co., Ltd.) • Coenzyme: 2 mM (NAD, thio-NAD, NADP, thio NADP; Oriental Yeast Co., Ltd.) One ml of the above reaction solution is added to a quartz cell. Then, the quartz cell is placed in a spectrophotometer adjusted at a temperature of 37° C. The cell is incubated for 5 minutes or more and then 20 μl of an enzyme solution of about 1.0 U/ml is added thereto and mixed. The initial velocity is obtained from an absorbance change per minute at a wavelength peculiar to each reduced coenzyme. The initial velocity obtained with each coenzyme is compared with the initial velocity (100%) obtained using NAD as a coenzyme to provide the relative activity. According to the relative activity assay described above, the measurement was performed using the same concentration of D-chiro-inositol, D-mannose, D-fructose, D-galactose, mannitol, epi-inositol, or scyllo-inositol in place of the substrate in the reaction solution. […] The substrates used include D-mannose, D-fructose, D-galactose, mannitol, D-chiro-inositol (as above: Wako Pure Chemical Industries, Ltd.), myo-inositol, epi-inositol, and scyllo-inositol (as above: Sigma, Co., Ltd.). Following the relative activity assay described above, the measurement was performed using each of 100 mM tris buffer (pH 7.0-9.0) and 100 mM glycine buffer (pH 9.0-11.0) in place of 100 mM of pH 10.0 glycine buffer in the reaction solution. […] Using the relative activity assay described above, the concentration of myo-inositol and the concentrations of NAD and thio-NAD were changed to determine Km values respectively. Using the activity assay described above, the substrate concentration was changed to calculate the Km value.

[3] = tested on: myo-inositol dehydrogenase; details: pH 8.8

Molecule: O=C(O)CN(CCO)CCO [Bicine, N,N-Bis(hydroxyethyl)glycine]
- Stability of sensitivity of R-2 reagent by buffer, in comparison to the standard solution [1]: stable sensitivity; also recorded: most stable sensitivity

- Substrate specificity (enzyme activity for each substrate) [2]: less than 1%
Molecule: O=C(CO)[C@@H](O)[C@H](O)[C@H](O)CO [Fructose, D-fructose]

- Substrate specificity (enzyme activity for each substrate) [2]: less than 1%
Molecule: O=C[C@H](O)[C@@H](O)[C@@H](O)[C@H](O)CO [Galactose, D-galactose]

- Substrate specificity (enzyme activity for each substrate) [2]: 0%
Molecule: OC[C@@H](O)[C@@H](O)[C@H](O)[C@H](O)CO [Mannitol, mannitol]

- Km ([2]; coenzyme concentration changed, read-out: Km value for coenzyme): 4.5 ± 1 mM
- Relative activity ratio for each coenzyme used [2]: 29%
Molecule: NC(=S)c1ccc[n+]([C@@H]2O[C@H](COP(=O)([O-])OP(=O)(O)OC[C@H]3O[C@@H](n4cnc5c(N)ncnc54)[C@H](O)[C@@H]3O)[C@@H](O)[C@H]2O)c1 [Thio-NAD, thio-nicotinamide adenine dinucleotide]

- Relative activity ratio for each coenzyme used [2]: 0%
Molecule: NC(=S)c1ccc[n+]([C@@H]2O[C@H](COP(=O)([O-])OP(=O)(O)OC[C@H]3O[C@@H](n4cnc5c(N)ncnc54)[C@H](OP(=O)(O)O)[C@@H]3O)[C@@H](O)[C@H]2O)c1 [Thio-NADP, thio-nicotinamide adenine dinucleotide phosphate]

- Stability of sensitivity of R-2 reagent by buffer, in comparison to the standard solution [1]: stable sensitivity
Molecule: O=C(O)CNC(CO)(CO)CO [Tricine, N-Tris(hydroxymethyl)methylglycine]

- Substrate specificity (enzyme activity for each substrate) [2]: 18%
Molecule: OC1C(O)C(O)C(O)C(O)C1O [chiro-Inositol, D-chiro-inositol]

- Substrate specificity (enzyme activity for each substrate) [2]: 2%
Molecule: OC1C(O)C(O)C(O)C(O)C1O (stereo not drawn) [epi-Inositol, epi-inositol]

- Substrate specificity (enzyme activity for each substrate) [2]: 100%
- Km ([2]; substrate concentration changed, read-out: Km value for substrate): 1.7 ± 0.2 mM
Molecule: O[C@H]1[C@H](O)[C@@H](O)[C@H](O)[C@@H](O)[C@H]1O [myo-Inositol, myo-inositol]

- Substrate specificity (enzyme activity for each substrate) [2]: less than 1%
Molecule: O[C@H]1[C@H](O)[C@@H](O)[C@H](O)[C@@H](O)[C@@H]1O [scyllo-Inositol, scyllo-inositol]

Molecule: Tris(hydroxymethyl)aminomethane
- Stability of sensitivity of R-2 reagent by buffer, in comparison to the standard solution [3]: stable sensitivity

Molecule: nicotinamide adenine dinucleotide phosphate [NADP]
- Relative activity ratio for each coenzyme used [2]: 8%
